Data set [1] is described as follows: Stress stability of solid forms at elevated temperature and humidity (XRPD, impurities). The format is physicochemical. As for the experimental part:
Preliminary stress stability analysis of Compound B Form B. The XRPD patterns of Compound A salts (fumarate and tartrate) exposed to 40° C./75% RH for one month under open conditions.
XRPD of one-month stability sample.

Data set [2] in a line: Solubility at 37° C. (summary of solid forms). The format is physicochemical. The settings on record: medium not stated.
Data set [3] is described as follows: Approximate solubility of freebase Compound A in 16 solvents at RT. Type of data set: physicochemical. As for the experimental part:
Polymorph Screening. The solubility of freebase Compound A was estimated in 16 solvents at RT. (Table 8). Polymorph screening experiments were performed using different solution crystallization or solid phase transition methods.

Data set [4] in a line: Equilibrium solubility (17 hrs) of Form B and Form F in EtOH. The format is physicochemical. The following applies: concentration of freebase in filtrate. The source says: Phase transformation. Crystallization of Compound B from solvents such as ethyl acetate, ethanol, acetone or and aqueous mixture of these may result in the formation of one more of the following forms: anhydrous Form B, anhydrous Form F, monohydrate Form D, and acetone solvate Form A. The XRPD patterns of these four solid forms are shown in FIG. 21. It was therefore important to know the physical stability of these forms to determine the complete phase transformation landscape and control crystallization to obtain the desired Form B. Owing to the close proximity of melting points of Forms F and B (160-164° C. onset for Form F vs 166-175° C. for Form B), form conversion was slow in competitive slurry bridging experiments at RT and a mixture of both forms was obtained.
Equilibrium Solubility Measurement of Anhydrous Form B and F. To further determine the thermodynamic stability between Form B and F, equilibrium solubility measurement experiments were conducted in EtOH at 25° C., 35° C. and 50° C., respectively. Detailed procedures are summarized as follows: solids of Form B and F were suspended in 0.4 mL of EtOH at targeted temperatures and magnetically stirred for 17 hrs (750 rpm). After centrifugation, the concentration and HPLC purity of freebase in the filtrate was tested. The crystal form of remaining solids was checked by XRPD.

Data set [5] is described as follows: Water sorption analysis / DVS (hygroscopicity). The format is physicochemical. The following applies: for Hygroscopicity (in words): water sorption / DVS at 25° C. As for the experimental part:
Water sorption analysis. About 5-6 mg of powder sample was placed in the sample pan of an automated water sorption analyzer (Q5000SA, TA instruments, New Castle, DE) at 25° C. and a nitrogen flow rate of 200 mL/min. […] This was followed by a progressive decrease in RH in decrements of 10% back to 0% RH, using the same protocol.

Data set [6] can be described thus: Equilibrium solubility (24 hrs) of Form B and Form D in aw 0.2/0.4 EtOH:H2O systems. The following applies: RT, concentration of freebase in filtrate; for solubility at 24 hrs: organic solvent or mixture, thermodynamic from solid. The format is physicochemical. Here is the method:
Solubility Measurement of Form B and D. To further confirm the thermodynamic stability relationship between Form B and Form D under aw of 0.2 and 0.4 conditions at RT, equilibrium solubility under the conditions set forth in Table 35 was collected.
Solids of anhydrous Form B and hydrous Form D were suspended in 0.5 mL of target solvent system (aw=0.2/0.4), respectively, and magnetically stirred for 24 hrs (750 rpm). The suspension was filtered and the concentration of freebase in the filtrate was tested.

The subject of data set [7] is xenograft models of ER-positive breast cancer. The following applies: dosed according to a clinically relevant dosing scheme.
Data set [8] is described as follows: Compression analysis of Compound B Form B compacts. The format is physicochemical. The following applies: 250 mg compacts of neat compound.
A short description of data set [9]: Hydrate-anhydrate stability, slurry competition under various water activity at RT. The format is physicochemical. Here is the method: Critical Water Activity Determination between Form B and D. To determine critical water activity between anhydrous Form B and hydrous Form D, slurry competition was performed in various water activity conditions at RT as listed in Table 34. A mixture of Form B and D with equal mass ratio was suspended in saturated EtOH-water (with various aw) solutions of Form B and then magnetically stirred at RT. After slurry for about 7˜36 days, remaining solids were isolated for XRPD characterization.

In brackets after ≈: the same amount, converted by molar mass.

With `C[C@@H]1Cc2c([nH]c3ccccc23)[C@@H](c2c(F)cc(NC3CN(CCCF)C3)cc2F)N1CC(F)(F)CO` [Compound C], in data set [1] (40° C./75% RH, one month), the “Impurities after stress stability” value is recorded as 0.18%. Further, the “Solid form (XRPD) after stress stability” value in [1] (40° C./75% RH, one month, open) is “did not change”.

The solubility is how much of the substance goes into solution per volume. Take `C[C@@H]1Cc2c([nH]c3ccccc23)[C@@H](c2c(F)cc(NC3CN(CCCF)C3)cc2F)N1CC(F)(F)CO` [Compound A, 3-((1R,3R)-1-(2,6-difluoro-4-((1-(3-fluoropropyl)azetidin-3-yl)amino)phenyl)-3-methyl-1,3,4,9-tetrahydro-2H-pyrido[3,4-b]indol-2-yl)-2,2-difluoropropan-1-ol]: the solubility is approximately 6.6 mg/mL (≈ 12.6 mM) in data set [2]; more than 60 mg/mL in [3] (ethanol, organic solvent or mixture, EtOH); more than 60 mg/mL in data set [3] (organic solvent or mixture, 1,4-Dioxane); more than 60 mg/mL in data set [3] (organic solvent or mixture, 2-propanol); more than 60 mg/mL in data set [3] (organic solvent or mixture, ACN); more than 60 mg/mL in data set [3] (organic solvent or mixture, Acetone). The solubility is more than 44 mg/mL in data set [3] (organic solvent or mixture, CPME); less than 1.9 mg/mL in data set [3] (organic solvent or mixture, Cyclohexanes); more than 60 mg/mL in data set [3] (organic solvent or mixture, EtOAc); more than 60 mg/mL in data set [3] (organic solvent or mixture, IPAc); more than 40 mg/mL in data set [3] (organic solvent or mixture, Iso-butanol); more than 60 mg/mL in data set [3] (organic solvent or mixture, MIBK). Moreover, the solubility in data set [3] (organic solvent or mixture, MTBE) is more than 60 mg/mL; in data set [3] (organic solvent or mixture, MeTHF), more than 60 mg/mL; in data set [3] (organic solvent or mixture, Toluene), more than 60 mg/mL; in data set [3] (organic solvent or mixture, n-Heptane) it was less than 2.1 mg/mL; in data set [3] (water, H2O) it was less than 1.9 mg/mL.

Take `C[C@@H]1Cc2c([nH]c3ccccc23)[C@@H](c2c(F)cc(NC3CN(CCCF)C3)cc2F)N1CC(F)(F)CO` [Compound B Form F]: the “Solubility (equilibrium)” value worked out at 0.26 mg/mL (≈ 0.498 mM) in data set [4] (25° C.), 0.36 mg/mL (≈ 0.689 mM) in [4] (35° C.) and 0.82 mg/mL (≈ 1.57 mM) in [4] (50° C.). Further, in [5] (up to 80% RH, 25° C.), the “Water uptake (DVS)” value is approximately 1.9%. Further, the “Hygroscopicity (in words)” value in data set [5] is listed as “slightly hygroscopic”.

On to `C[C@@H]1Cc2c([nH]c3ccccc23)[C@@H](c2c(F)cc(NC3CN(CCCF)C3)cc2F)N1CC(F)(F)CO` [Compound B Form D], for which the “Water uptake (DVS, desorption)” value is given as 2.25% in data set [5] (20% RH, 25° C.) and 2.72% in data set [5] (80% RH, 25° C.). The “Solubility (equilibrium)” value in data set [6] (aw 0.2, EtOH:H2O (97:3, v/v)) is 21.7 mg/mL (≈ 41.5 mM); in data set [6] (aw 0.4, EtOH:H2O (92.7:7.3, v/v)) it was 18.6 mg/mL (≈ 35.6 mM).

With `C[C@]12CC[C@@H]3c4ccc(O)cc4C[C@@H](CCCCCCCCC[S+]([O-])CCCC(F)(F)C(F)(F)F)[C@H]3[C@@H]1CC[C@@H]2O` (stereo partly drawn) [Fulvestrant, reference compound], the “Efficacy relative to Compound B” value in [7] is listed as “less efficacious than Compound B”.

As for `C[C@@H]1Cc2c([nH]c3ccccc23)[C@@H](c2c(F)cc(NC3CN(CCCF)C3)cc2F)N1CC(F)(F)CO` [Compound C Form 1], the “Hygroscopicity at 95% RH” value in data set [5] (95% RH) is listed as less than 1.5%.

For `C[C@@H]1Cc2c([nH]c3ccccc23)[C@@H](c2c(F)cc(NC3CN(CCCF)C3)cc2F)N1CC(F)(F)CO` [Compound B Form B], the “Solid form (XRPD) after accelerated stability” value in [1] (30° C./65% RH and 40° C./75% RH, up to 6 months, open) was “remains unchanged”. Besides, the “Solid form (XRPD) after stress stability” value in [1] (40° C./75% RH, one month, open) was “remains unchanged”. Also, the solubility at 17 hrs in [4] (35 °C, organic solvent or mixture, thermodynamic from solid) came out at 0.3 mg/mL (≈ 0.574 mM); in data set [4] (50 °C, organic solvent or mixture, thermodynamic from solid) it was 0.49 mg/mL (≈ 0.938 mM). Moreover, the solubility at 17 h in data set [4] (ethanol, 25 °C, organic solvent or mixture, thermodynamic from solid) is 0.23 mg/mL (≈ 0.44 mM). Further, the “Hygroscopicity (in words)” value in data set [5] is recorded as “slightly hygroscopic”. The “Solid form upon compression (SSNMR, XRPD)” value in data set [8] is “remains unchanged”. Also, in data set [2], the “Solubility at 37° C.” value is recorded as “about 5.9 mg/mL”. Further, in data set [9], the “Water activity (aw) at which the form remained stable against hydrate Form D” value is reported as less than 0.2. The “Water activity (aw) up to which the form was kinetically stable” value in data set [9] (slurry bridging experiments up to 36 days) is not above 0.4. Further, the solubility at 24 hrs in [6] (EtOH:H2O (92.7:7.3, v/v), aw 0.4, 25 °C, aw 0.4, EtOH:H2O (92.7:7.3, v/v)) turned out to be 27.5 mg/mL (≈ 52.6 mM); in [6] (EtOH:H2O (97:3, v/v), aw 0.2, 25 °C, aw 0.2, EtOH:H2O (97:3, v/v)), 24.4 mg/mL (≈ 46.7 mM).

The record behind these values is patent US11780834B2, “Solid forms of 3-((1R,3R)-1-(2,6-difluoro-4-((1-(3-fluoropropyl)azetidin-3-yl)amino)phenyl)-3-methyl-1,3,4,9-tetrahydro-2H-pyrido[3,4-b]indol-2-yl)-2,2-difluoropropan-1-ol and processes for preparing fused tricyclic compounds comprising a substituted phenyl or pyridinyl moiety, including methods …” (Hoffmann-La Roche Inc., priority 2018, dated 2023).
